Experimental data as given in patent US20180327367A1, “MACROCYCLIC BROAD SPECTRUM ANTIBIOTICS” (priority 2015, published 2018).
Values after ≈ are worked out from the molar mass of the structure shown. Read-outs that look alike come from different tables or passages of the source.

Legend:
[1] = molecular target: T1, SpsB (Staphylococcus aureus signal peptidase) (Staphylococcus aureus, UniProt P0A070); test: cell-based; assay type: biochemical; conditions: SpsB IC50, whole-cell S. aureus (USA300 background, overexpressing SpsB) as SpsB source; fluorogenic peptide substrate, kinetic read 30 min
T1 construct: This assay uses a suspension of Staphylococcus aureus cells as a source of SpsB instead of recombinant SpsB protein; endogenous in cells; host or cells: S. aureus, USA300 background, overexpressing SpsB (whole-cell suspension from frozen pellets)
How it was run: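 Whole S. aureus cells (USA300, overexpressing SpsB) in PBS with MgCl2, CaCl2 and 0.1% Tween-80 served as enzyme source, mixed with 20 μM stock of (Dabcyl)βAla-KPAKAAE(Edans) substrate before use. Fluorescence (ex 340/em 490 nm) read kinetically over 30 min. IC50 from reaction rate versus 11-point inhibitor concentration.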

[2] = tested on: Escherichia coli MC4100 harboring the IMP4213 (E. coli IMP); test: microbe, parasite or virus in culture; assay type: cell-based; conditions: Escherichia coli, 22 h, read-out: MIC (μg/mL) E. coli IMP, E. coli MC4100 IMP4213, increased outer-membrane permeability; 35° C., 22 hours
How it was run: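 Broth micro-dilution per CLSI in cation-adjusted Mueller Hinton Broth with 0.002% Tween-80; E. coli MC4100 carries IMP4213, raising outer-membrane permeability. Compounds tested as 2-fold serial dilutions (10 concentrations) from 4 μg/mL (protocol 2) or 0.5 μg/mL (protocol 3); inoculum OD600 0.0005, 35° C for 22 hours.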

[3] = tested on: Methicillin Resistant Staphylococcus aureus strain USA 300, NRS384; test: Minimum inhibitory concentration, broth micro-dilution (CLSI), S. aureus; assay type: cell-based; conditions: Staphylococcus aureus, MRSA / NRS 384 / USA300, 22 h, 35° C., 22 hours
How it was run: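 Colonies grown 20 hours at 35° C were suspended in cation-adjusted Mueller Hinton Broth with 0.002% Tween-80. Cells were then added to 2-fold compound dilutions starting at 4 or 0.5 μg/mL, at OD600 0.0005.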

[4] = tested on: Escherichia coli ATCC 25922; test: Minimum inhibitory concentration, broth micro-dilution (CLSI), E. coli; assay type: cell-based; conditions: Escherichia coli, ATCC25922, 22 h, 35° C., 22 hours
[5] = MRSA USA 300 NRS384, read-out: MIC (μg/mL) S. aureus
[6] = E. coli ATCC 25922, read-out: MIC (μg/mL) E. coli
[7] = read-out: MIC (μg/mL) S. aureus, MRSA USA 300 NRS384
[8] = read-out: MIC (μg/mL) E. coli, E. coli ATCC 25922

T1 sequence (P0A070 whole entry): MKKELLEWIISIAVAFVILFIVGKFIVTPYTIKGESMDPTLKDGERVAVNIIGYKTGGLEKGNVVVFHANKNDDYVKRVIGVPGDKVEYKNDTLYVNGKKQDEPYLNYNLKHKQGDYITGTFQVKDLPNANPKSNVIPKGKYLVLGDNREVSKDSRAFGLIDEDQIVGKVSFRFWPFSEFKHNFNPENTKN

Compound | IC50 [1] [nM] | MIC [2] [µg/mL] | MIC [3, 5] [µg/mL] | MIC [4, 6] [µg/mL] | MIC [3, 7] [µg/mL] | MIC [4, 8] [µg/mL]
CCCCCCCCCCCCCC(=O)N[C@@H](CCN)C(=O)N(C)[C@@H]1C(=O)N[C@@H](C)C(=O)N[C@H](C(=O)NCC#N)Cc2ccc(OCCC)c(c2)-c2cc1ccc2OCCN [Compound 323] | 2.8 | 0.094 (≈ 0.111 µM) | 0.75 (≈ 0.885 µM) | 1.5 (≈ 1.77 µM) | – | –
CCCCCCCCCCCCCC(=O)N[C@@H](CCN)C(=O)N(C)[C@@H]1C(=O)N[C@@H](C)C(=O)N[C@H](C(=O)NCC#N)Cc2ccc(OCC)c(c2)-c2cc1ccc2OCCN [Compound 324] | 0.82 | 0.031 (≈ 0.0372 µM) | 0.25 (≈ 0.3 µM) | 1 (≈ 1.2 µM) | – | –
CCCCCCCCCCCCCC(=O)N[C@@H](CCN)C(=O)N(C)[C@@H]1C(=O)N[C@@H](C)C(=O)N[C@H](C(=O)NCC#N)Cc2ccc(OCCO)c(c2)-c2cc1ccc2OCCN [Compound 325] | 0.77 | < 0.0039 | 0.13 (≈ 0.153 µM) | 0.5 (≈ 0.589 µM) | – | –
CCCCCCCCCCCCCC(=O)N[C@@H](CCN)C(=O)N(C)[C@@H]1C(=O)N[C@@H](C)C(=O)N[C@H](C(=O)NCC#N)Cc2ccc(OC)c(c2)-c2cc1ccc2OCCN [Compound 326] | 0.98 | 0.016 (≈ 0.0195 µM) | 0.19 (≈ 0.232 µM) | 1 (≈ 1.22 µM) | – | –
CCCCCCCCCCCCCC(=O)N[C@@H](CCN)C(=O)N(C)[C@@H]1C(=O)N[C@@H](C)C(=O)N[C@H](C(=O)NCC#N)Cc2ccc(OCCN)c(c2)-c2cc1ccc2OCCO [Compound 329] | 0.71 | 0.0078 (≈ 0.00919 µM) | 0.063 (≈ 0.0742 µM) | 0.5 (≈ 0.589 µM) | – | –
CCCCCCCCCCCCCC(=O)N[C@@H](CCN)C(=O)N(C)[C@@H]1C(=O)N[C@@H](C)C(=O)N[C@H](C(=O)NCC#N)Cc2ccc(OCCN)c(c2)-c2cc1ccc2OCC [Compound 330] | 1 | 0.063 (≈ 0.0756 µM) | 0.25 (≈ 0.3 µM) | 1 (≈ 1.2 µM) | – | –
CCCCc1ccc(-c2ccc(C(=O)N[C@@H](CCCCN)C(=O)N(C)[C@@H]3C(=O)N[C@@H](C)C(=O)N[C@H](C(=O)NCC#N)Cc4ccc(OCCN)c(c4)-c4cc3ccc4OCCN)cc2)cc1 [Compound 331] | 0.34 | 0.023 (≈ 0.0255 µM) | – | – | 0.063 (≈ 0.0698 µM) | 0.69 (≈ 0.765 µM)
CCCCc1ccc(-c2ccc(C(=O)N[C@@H](CCCCN)C(=O)N(C)[C@@H]3C(=O)N[C@@H](C)C(=O)N[C@H](C(=O)N[C@@H](C)C#N)Cc4ccc(OCCN)c(c4)-c4cc3ccc4OCCN)cc2)cc1 [Compound 332] | 0.56 | < 0.063 | 0.13 (≈ 0.142 µM) | 3 (≈ 3.27 µM) | – | –
CCCCCCCCCCCCCC(=O)N[C@@H](CCCCN)C(=O)N(C)[C@@H]1C(=O)N[C@@H](C)C(=O)N[C@H](C(=O)N[C@@H](C)C#N)Cc2ccc(OCCN)c(c2)-c2cc1ccc2OCCO [Compound 333] | 0.8 | < 0.063 | < 0.063 | 1 (≈ 1.12 µM) | – | –
CCCCCCCCCCCCCC(=O)N[C@@H](CCCCN)C(=O)N(C)[C@@H]1C(=O)N[C@@H](C)C(=O)N[C@H](C(=O)NCC#N)Cc2ccc(OCCN)c(c2)-c2cc1ccc2OCCN [Compound 334] | 1.3 | < 0.063 | < 0.063 | 0.5 (≈ 0.571 µM) | – | –
CCCCCCCCc1ccc(C(=O)N[C@@H](CCCN)C(=O)N(C)[C@@H]2C(=O)N[C@@H](C)C(=O)N[C@H](C(=O)NCC#N)Cc3ccc(OCCN)c(c3)-c3cc2ccc3OCCN)cc1 [Compound 335] | 0.56 | 0.016 (≈ 0.0184 µM) | 0.031 (≈ 0.0357 µM) | 0.25 (≈ 0.288 µM) | – | –
CCCCCCCCCCCCCC(=O)N[C@@H](CCCN)C(=O)N(C)[C@@H]1C(=O)N[C@@H](C)C(=O)N[C@H](C(=O)NCC#N)Cc2ccc(OCCN)c(c2)-c2cc1ccc2OCCN [Compound 336] | < 0.5 | 0.023 (≈ 0.0267 µM) | 0.063 (≈ 0.0731 µM) | 0.25 (≈ 0.29 µM) | – | –
CCCCCCCCCCCCCC(=O)N[C@@H](CCN)C(=O)N(C)[C@@H]1C(=O)N[C@@H](C)C(=O)N[C@H](C(=O)NCC#N)Cc2ccc(OCCN)c(c2)-c2cc1ccc2OCCN [Compound 337] | < 0.5 | 0.016 (≈ 0.0189 µM) | 0.031 (≈ 0.0366 µM) | 0.25 (≈ 0.295 µM) | – | –
CCCCc1ccc(-c2ccc(C(=O)N[C@@H](CCN)C(=O)N(C)[C@@H]3C(=O)N[C@@H](C)C(=O)N[C@H](C(=O)NCC#N)Cc4ccc(OCCN)c(c4)-c4cc3ccc4OCCN)cc2)cc1 [Compound 338] | < 0.5 | 0.023 (≈ 0.0263 µM) | – | – | 0.063 (≈ 0.0721 µM) | 0.19 (≈ 0.217 µM)
CCCCCCCCc1ccc(C(=O)N[C@@H](CCN)C(=O)N(C)[C@@H]2C(=O)N[C@@H](C)C(=O)N[C@H](C(=O)NCC#N)Cc3ccc(OCCN)c(c3)-c3cc2ccc3OCCN)c(C)c1 [Compound 339] | < 0.5 | 0.018 (≈ 0.0207 µM) | 0.047 (≈ 0.0541 µM) | 0.13 (≈ 0.15 µM) | – | –
CCCCc1ccc(-c2ccc(C(=O)N[C@@H](CN)C(=O)N(C)[C@@H]3C(=O)N[C@@H](C)C(=O)N[C@H](C(=O)NCC#N)Cc4ccc(OCCN)c(c4)-c4cc3ccc4OCCN)cc2)cc1 [Compound 341] | 1.1 | 0.031 (≈ 0.036 µM) | 0.13 (≈ 0.151 µM) | 0.5 (≈ 0.581 µM) | – | –
CCCCCCCCCCCCCC(=O)N[C@@H](CN)C(=O)N(C)[C@@H]1C(=O)N[C@@H](C)C(=O)N[C@H](C(=O)N[C@@H](C)C#N)Cc2ccc(OCCN)c(c2)-c2cc1ccc2OCCN [Compound 342] | 1.3 | 0.063 (≈ 0.0743 µM) | 0.19 (≈ 0.224 µM) | 0.5 (≈ 0.59 µM) | – | –
CCCCCCCCCCCCCC(=O)N[C@@H](CN)C(=O)N(C)[C@@H]1C(=O)N[C@@H](C)C(=O)N[C@H](C(=O)NCC#N)Cc2ccc(OCCN)c(c2)-c2cc1ccc2OCCN [Compound 343] | 0.73 | 0.063 (≈ 0.0755 µM) | 0.094 (≈ 0.113 µM) | 0.25 (≈ 0.3 µM) | – | –
CCCCCCCCc1ccc(C(=O)N[C@@H](CN)C(=O)N(C)[C@@H]2C(=O)N[C@@H](C)C(=O)N[C@H](C(=O)NCC#N)Cc3ccc(OCCN)c(c3)-c3cc2ccc3OCCN)cc1 [Compound 344] | 1 | 0.036 (≈ 0.0429 µM) | 0.094 (≈ 0.112 µM) | 0.38 (≈ 0.452 µM) | – | –
CCCCCCCCS(=O)(=O)N[C@@H](CO)C(=O)N(C)[C@@H]1C(=O)N[C@@H](C)C(=O)N[C@H](C(=O)NCC#N)Cc2ccc(OCCN)c(c2)-c2cc1ccc2OCCN [Compound 345] | 2.2 | 2 (≈ 2.5 µM) | – | – | 0.5 (≈ 0.624 µM) | > 64
CCCCCCCCCCS(=O)(=O)N[C@@H](CCN)C(=O)N(C)[C@@H]1C(=O)N[C@@H](C)C(=O)N[C@H](C(=O)NCC#N)Cc2ccc(OCCN)c(c2)-c2cc1ccc2OCCN [Compound 346] | 0.7 | 0.063 (≈ 0.0748 µM) | 0.031 (≈ 0.0368 µM) | 8 (≈ 9.5 µM) | – | –
CCCCCCCCCCNCCS(=O)(=O)N[C@@H](CCO)C(=O)N(C)[C@@H]1C(=O)N[C@@H](C)C(=O)N[C@H](C(=O)NCC#N)Cc2ccc(OCCN)c(c2)-c2cc1ccc2OCCN [Compound 348] | 0.8 | 1 (≈ 1.13 µM) | – | – | 0.055 (≈ 0.0621 µM) | > 64
CCCCCCCCCCNCCS(=O)(=O)N[C@@H](CCN)C(=O)N(C)[C@@H]1C(=O)N[C@@H](C)C(=O)N[C@H](C(=O)NCC#N)Cc2ccc(OCCN)c(c2)-c2cc1ccc2OCCN [Compound 350] | 1 | 0.063 (≈ 0.0712 µM) | 0.016 (≈ 0.0181 µM) | 4 (≈ 4.52 µM) | – | –
CCCCCCCCCC(=O)N[C@H](CCC)C(=O)N[C@@H](CCN)C(=O)N(C)[C@@H]1C(=O)N[C@@H](C)C(=O)N[C@H](C(=O)NCC#N)Cc2ccc(OCCN)c(c2)-c2cc1ccc2OCCN [Compound 353] | 0.82 | 0.016 (≈ 0.018 µM) | – | – | 0.047 (≈ 0.0527 µM) | 2 (≈ 2.24 µM)
CCCCc1ccc(C(=O)N[C@H](CCC)C(=O)N[C@@H](CCN)C(=O)N(C)[C@@H]2C(=O)N[C@@H](C)C(=O)N[C@H](C(=O)NCC#N)Cc3ccc(OCCN)c(c3)-c3cc2ccc3OCCN)c(C)c1 [Compound 354] | 1.8 | 0.063 (≈ 0.0691 µM) | – | – | 0.25 (≈ 0.274 µM) | 8 (≈ 8.78 µM)
CCCCc1ccc(C(=O)N[C@@H](CCC)C(=O)N[C@@H](CCN)C(=O)N(C)[C@@H]2C(=O)N[C@@H](C)C(=O)N[C@H](C(=O)NCC#N)Cc3ccc(OCCN)c(c3)-c3cc2ccc3OCCN)c(C)c1 [Compound 355] | 1.1 | 0.031 (≈ 0.034 µM) | – | – | 0.13 (≈ 0.143 µM) | 4 (≈ 4.39 µM)
CCCCCCCCCC(=O)N[C@@H](CO)C(=O)N[C@@H](CCN)C(=O)N(C)[C@@H]1C(=O)N[C@@H](C)C(=O)N[C@H](C(=O)NCC#N)Cc2ccc(OCCN)c(c2)-c2cc1ccc2OCCN [Compound 360] | 1.2 | 0.31 (≈ 0.353 µM) | – | – | 0.22 (≈ 0.25 µM) | 24 (≈ 27.3 µM)
CCCCCCCCCC(=O)N[C@H](C)C(=O)NCC(=O)N[C@@H](CCN)C(=O)N(C)[C@@H]1C(=O)N[C@@H](C)C(=O)N[C@H](C(=O)NCC#N)Cc2ccc(OCCN)c(c2)-c2cc1ccc2OCCN [Compound 366] | 0.64 | 0.38 (≈ 0.413 µM) | – | – | 0.25 (≈ 0.272 µM) | 48 (≈ 52.2 µM)
